Source: paper doi:10.1101/2020.05.11.20064584v1 (medRxiv, 2020)
Where two headings read alike, the source gives them in different places.

Assays:
[1] = Rat pharmacokinetics, blood LL-37 by ELISA after gavage; format: in vivo, SD rats; conditions: male, SD, serum, po
[2] = Acute and subchronic toxicity test in rats; format: in vivo; conditions: SD rats, oral gavage, 100 times of the expected clinical dose
rVSV-SARS = conditions: 2 h, 10 ug/ml
[3] = 6.0E10/kg·day by gavage, end of two weeks, n=5, Mean ± SEM

Question: With `CC[C@H](C)[C@H](NC(=O)[C@H](CCCCN)NC(=O)[C@H](CCC(=O)O)NC(=O)[C@H](CCCCN)NC(=O)[C@H](CO)NC(=O)[C@H](CCCCN)NC(=O)[C@H](CCCNC(=N)N)NC(=O)[C@H](Cc1ccccc1)NC(=O)[C@H](Cc1ccccc1)NC(=O)[C@H](CC(=O)O)NC(=O)CNC(=O)[C@H](CC(C)C)NC(=O)[C@@H](N)CC(C)C)C(=O)NCC(=O)N[C@@H](CCCCN)C(=O)N[C@@H](CCC(=O)O)C(=O)N[C@@H](Cc1ccccc1)C(=O)N[C@@H](CCCCN)C(=O)N[C@@H](CCCNC(=N)N)C(=O)N[C@H](C(=O)N[C@H](C(=O)N[C@@H](CCC(N)=O)C(=O)N[C@@H](CCCNC(=N)N)C(=O)N[C@H](C(=O)N[C@@H](CCCCN)C(=O)N[C@@H](CC(=O)O)C(=O)N[C@@H](Cc1ccccc1)C(=O)N[C@@H](CC(C)C)C(=O)N[C@@H](CCCNC(=N)N)C(=O)N[C@@H](CC(N)=O)C(=O)N[C@@H](CC(C)C)C(=O)N[C@H](C(=O)N1CCC[C@H]1C(=O)N[C@@H](CCCNC(=N)N)C(=O)N[C@H](C(=O)N[C@@H](CCC(=O)O)C(=O)N[C@@H](CO)C(=O)O)[C@@H](C)O)C(C)C)[C@@H](C)CC)C(C)C)[C@@H](C)CC` [LL-37] as the compound, how does the level at 1 h [1] read?
Answer: 0.7 ng/mL

Question: What about the level at 2 h [1] of the same compound?
Answer: 1.65 ng/mL

Question: And the level at 4 h [1]?
Answer: 0.92 ng/mL

Question: What about the level at 6 h [1] of the same compound?
Answer: 0.14 ng/mL

Question: What about the LD50 [2] of the same compound?
Answer: more than 6 × 10^10 CFU/kg/ day

Question: What about the “maximum inhibition rate, rVSV-SARS” value (rVSV-SARS) of the same compound?
Answer: 85%

Question: And the CK ([3]; female SD rats)?
Answer: 715.56±343.35 U/L

Question: What about the TC ([3]; female SD rats) of the same compound?
Answer: 1.30 ± 0.20 mM

Question: What about the TG ([3]; female SD rats) of the same compound?
Answer: 0.33 ± 0.07 mM

Question: What about the CK ([3]; male SD rats) of the same compound?
Answer: 661.02±93.22 U/L

Question: And the TG ([3]; male SD rats)?
Answer: 0.29 ± 0.03 mM
